Data taken from patent publication US10570149B2, “Tricyclic heterocylic derivatives” (MERCK PATENT GMBH, priority 2016, dated 2020).

Tests used:
[1] = tested on: phosphorylation of Chk1 (Ser 345) in HT29 colon adenocarcinoma cells; experiment: pCHK1 cellular assay; type: cell-based; settings: Homo sapiens
Description: Chk1 kinase acts downstream of ATR and has a key role in DNA damage checkpoint control. Activation of Chk1 involves phosphorylation of Ser317 and Ser345 (regarded as the preferential target for phosphorylation/activation by ATR) and occurs in response to blocked DNA replication and certain forms of genotoxic stress. Phosphorylation at Ser 345 serves to localize Chk1 to the nucleus following checkpoint activation.
This assay measures a decrease in phosphorylation of Chk1 (Ser 345) in HT29 colon adenocarcinoma cells following treatment with compound and hydroxyurea (which promotes fork stalling because of dNTP depletion) and using an immunocytochemical procedure and high content imaging.
For the assay HT29 cells are plated in culture medium (DMEM high Glucose (no phenol red), 2 mM Glutamax, 1 mM Pyruvate, 10% FCS into Greiner 384 well plates, black, μclear #781090 (2500 cells/well/30 μl) and incubated for at least 20 hours at 37° C., 10% CO2 and 90% rH. Diluted test compounds (1 nM-30 μM final) and hydroxyurea (3 mM final) are added simultaneously and cells are incubated for 4 h at 37° C. After fixation/prmeabilisation with 100% MeOH (−20° C. cold) and permeabilisation with 0.2% Triton X-100 a complete immunocytochemical procedure is performed using a specific anti-pChk1 antibody (Cell Signaling, #2348BF) and fluorescently labelled secondary antibody (Alexa Fluor® 488 goat anti-rabbit F(ab′)2 fragment, Invitrogen A11070) and parallel nuclear staining for cell counting.
The nuclear localised pChk1 signal is detected on an ImageXpress Ultra confocal high content reader and reported as % positive cells (nuclei).

[2] = tested on: phosphorylation of H2AX (gH2AX) in U2OS-TopBP1-ER cells; experiment: gH2AX-TopBP1ER cellular assay; type: cell-based
Description: gH2AX-TopBP1ER Cellular Assay
ATR activity is restricted to replicating cells and many of its targets can also be phosphorylated by other PIKKs. These restrictions have limited the development of selective cellular assays in the past. In order to overcome these limitations, a previously developed genetically engineered cellular system in which ATR, and only ATR, can be activated at will in every cell (Toledo et al Genes Dev. 22, 297-302 2008) was used. In this system, the addition of 4-hydroxytamoxifen (4-OHT), promotes the nuclear translocation of a fragment of TopBP1 which then activates ATR. The phosphorylation of H2AX that follows 4-OHT addition in these cells is a direct and selective readout of ATR activity, which is not influenced by the rest of PIKKs. This property has been used in a screen for compounds with ATR inhibitory capacity. U2OS-TopBP1-ER cells stably express the TopBP1 activation domain (aa 978-1286) fused to a mutated estrogen receptor ligand binding domain. Nuclear accumulation of the TopBP1-ER-LBD fusion protein is induced by the synthetic ER antagonist 4-hydroxytamoxifen (4-OHT) (and not by natural ER agonists) mediating specific ATR activation that is independent of DNA damage or cell cycle. In the assay phosphorylation of the ATR substrate H2AX (“gH2AX”) at Serin 139 is detected using an immune-cytochemical procedure and high content imaging. For the assay U2OS-TopBP1-ER cells are plated in culture medium (DMEM high Glucose (no phenol red), 2 mM Glutamax, 1 mM Pyruvate, 10% FCS into Greiner 384 well plates, black, μclear #781090 (4000 cells/well/30 μl) and incubated for at least 20 hours at 37° C., 10% CO2 and 90% rH. Diluted test compounds (1 nM-30 μM final) and 4-OHT (1 μM final) are added simultaneously and cells are incubated for 2 h at 37° C. After fixation with 4% formaldehyde and permeabilisation with 0.2% Triton X-100 a complete immunocytochemical procedure is performed using a specific anti-gH2AX-antibody (Millipore 05-636, clone JBW301) and fluorescently labelled secondary antibody (Alexa Fluor® 488 goat anti-mouse F(ab′)2 fragment, Invitrogen A11017) and parallel nuclear staining for cell counting. The nuclear localised gH2AX signal is detected on an ImageXpress Ultra confocal high content reader and reported as % positive cells (nuclei).

[3] = biological target: T1, ATR/ATRIP (Homo sapiens, UniProt Q13535); experiment: ATR/ATRIP kinase assay (TR-FRET, p53 phosphorylation); type: biochemical; settings: Table 1, class symbols; read-out: ATR-ATRIP IC50
T1 construct: human ATR, full length, GenBank ID: NM_001184.3; p53: Sf21 insect cells
T1 sequence (Q13535 whole entry): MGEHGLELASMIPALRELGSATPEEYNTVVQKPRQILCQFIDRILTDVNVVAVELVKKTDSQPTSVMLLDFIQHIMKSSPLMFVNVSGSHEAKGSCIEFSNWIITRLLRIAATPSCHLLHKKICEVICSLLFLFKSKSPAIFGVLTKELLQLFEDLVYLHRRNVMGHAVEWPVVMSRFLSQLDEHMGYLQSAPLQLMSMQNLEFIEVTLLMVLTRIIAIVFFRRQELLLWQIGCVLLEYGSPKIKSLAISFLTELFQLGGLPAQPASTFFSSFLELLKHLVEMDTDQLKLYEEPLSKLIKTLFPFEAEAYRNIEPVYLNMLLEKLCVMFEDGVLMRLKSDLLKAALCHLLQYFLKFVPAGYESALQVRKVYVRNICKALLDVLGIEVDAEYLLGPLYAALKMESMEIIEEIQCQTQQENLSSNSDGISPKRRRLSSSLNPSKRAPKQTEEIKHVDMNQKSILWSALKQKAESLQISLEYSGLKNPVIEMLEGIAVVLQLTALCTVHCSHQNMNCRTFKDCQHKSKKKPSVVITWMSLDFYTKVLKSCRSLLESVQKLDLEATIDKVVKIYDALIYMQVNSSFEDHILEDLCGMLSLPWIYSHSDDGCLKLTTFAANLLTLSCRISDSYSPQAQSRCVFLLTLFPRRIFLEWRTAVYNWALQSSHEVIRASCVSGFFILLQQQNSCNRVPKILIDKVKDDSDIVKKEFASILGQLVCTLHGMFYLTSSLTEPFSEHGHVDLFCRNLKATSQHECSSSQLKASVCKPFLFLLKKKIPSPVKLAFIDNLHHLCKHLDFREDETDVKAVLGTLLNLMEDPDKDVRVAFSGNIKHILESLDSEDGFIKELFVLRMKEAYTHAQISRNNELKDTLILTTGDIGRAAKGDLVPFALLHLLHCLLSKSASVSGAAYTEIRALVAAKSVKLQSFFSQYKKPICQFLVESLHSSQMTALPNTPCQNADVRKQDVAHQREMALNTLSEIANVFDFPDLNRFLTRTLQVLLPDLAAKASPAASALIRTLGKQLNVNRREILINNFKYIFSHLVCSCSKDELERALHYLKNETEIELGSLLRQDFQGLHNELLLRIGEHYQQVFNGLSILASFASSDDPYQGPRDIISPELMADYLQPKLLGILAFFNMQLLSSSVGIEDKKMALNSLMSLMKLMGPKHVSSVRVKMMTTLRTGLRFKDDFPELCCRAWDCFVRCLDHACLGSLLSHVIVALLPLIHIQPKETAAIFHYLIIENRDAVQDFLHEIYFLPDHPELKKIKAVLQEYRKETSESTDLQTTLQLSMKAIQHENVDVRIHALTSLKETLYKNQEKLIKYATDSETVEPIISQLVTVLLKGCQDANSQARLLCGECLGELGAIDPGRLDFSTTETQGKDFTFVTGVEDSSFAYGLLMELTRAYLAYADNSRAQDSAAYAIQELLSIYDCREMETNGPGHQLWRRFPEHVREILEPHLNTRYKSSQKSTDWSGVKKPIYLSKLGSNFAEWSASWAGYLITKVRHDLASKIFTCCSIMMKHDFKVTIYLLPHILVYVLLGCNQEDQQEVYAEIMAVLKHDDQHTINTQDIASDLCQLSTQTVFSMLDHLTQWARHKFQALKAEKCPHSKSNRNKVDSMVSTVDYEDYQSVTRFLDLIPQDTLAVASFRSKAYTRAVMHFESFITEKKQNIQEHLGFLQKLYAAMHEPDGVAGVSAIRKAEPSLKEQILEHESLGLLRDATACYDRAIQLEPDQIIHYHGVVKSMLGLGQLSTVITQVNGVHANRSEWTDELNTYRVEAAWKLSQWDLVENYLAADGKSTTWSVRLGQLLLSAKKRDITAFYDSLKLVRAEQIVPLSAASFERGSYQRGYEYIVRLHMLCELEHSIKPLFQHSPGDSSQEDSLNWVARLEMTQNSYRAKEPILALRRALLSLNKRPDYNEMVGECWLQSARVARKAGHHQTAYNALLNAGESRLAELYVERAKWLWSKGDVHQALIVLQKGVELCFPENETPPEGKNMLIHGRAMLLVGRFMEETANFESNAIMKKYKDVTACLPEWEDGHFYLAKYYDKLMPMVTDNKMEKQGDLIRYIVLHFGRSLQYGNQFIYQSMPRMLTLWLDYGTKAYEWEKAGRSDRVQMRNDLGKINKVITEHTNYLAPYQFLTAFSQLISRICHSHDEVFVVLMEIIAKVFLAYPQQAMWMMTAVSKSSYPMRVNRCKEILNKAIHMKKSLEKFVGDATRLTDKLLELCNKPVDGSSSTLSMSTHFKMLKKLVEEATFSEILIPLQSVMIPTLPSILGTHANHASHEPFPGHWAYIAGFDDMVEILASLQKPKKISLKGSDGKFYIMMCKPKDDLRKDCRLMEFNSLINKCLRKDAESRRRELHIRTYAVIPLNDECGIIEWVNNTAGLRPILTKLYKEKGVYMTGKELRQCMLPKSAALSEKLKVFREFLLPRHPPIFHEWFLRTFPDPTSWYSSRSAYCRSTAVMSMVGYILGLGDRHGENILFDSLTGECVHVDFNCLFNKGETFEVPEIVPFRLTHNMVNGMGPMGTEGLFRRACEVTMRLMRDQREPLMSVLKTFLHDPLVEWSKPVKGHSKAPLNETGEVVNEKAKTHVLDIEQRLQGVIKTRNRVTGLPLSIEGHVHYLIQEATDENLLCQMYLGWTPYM
T1 sequence (Q8WXE1 whole entry partner): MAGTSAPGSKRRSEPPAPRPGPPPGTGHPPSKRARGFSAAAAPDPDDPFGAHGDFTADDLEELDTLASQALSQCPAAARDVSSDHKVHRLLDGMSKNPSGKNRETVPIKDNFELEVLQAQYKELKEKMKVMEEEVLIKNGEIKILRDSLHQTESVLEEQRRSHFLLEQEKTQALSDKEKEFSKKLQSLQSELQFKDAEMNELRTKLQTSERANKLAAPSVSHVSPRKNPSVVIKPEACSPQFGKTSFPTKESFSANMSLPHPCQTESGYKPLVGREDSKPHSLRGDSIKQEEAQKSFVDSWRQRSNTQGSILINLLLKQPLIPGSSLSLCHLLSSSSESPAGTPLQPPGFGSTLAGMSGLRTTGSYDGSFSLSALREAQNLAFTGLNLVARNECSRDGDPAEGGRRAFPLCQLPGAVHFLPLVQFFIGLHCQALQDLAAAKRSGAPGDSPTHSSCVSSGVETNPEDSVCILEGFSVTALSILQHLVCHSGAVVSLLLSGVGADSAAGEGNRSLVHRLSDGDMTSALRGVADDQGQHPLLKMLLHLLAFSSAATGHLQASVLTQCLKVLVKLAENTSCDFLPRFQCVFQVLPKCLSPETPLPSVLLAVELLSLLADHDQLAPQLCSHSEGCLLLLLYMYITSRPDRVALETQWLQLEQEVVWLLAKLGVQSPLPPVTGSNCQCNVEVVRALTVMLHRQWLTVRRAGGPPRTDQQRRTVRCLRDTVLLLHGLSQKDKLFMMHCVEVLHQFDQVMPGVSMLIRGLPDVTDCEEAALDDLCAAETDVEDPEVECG

[4] = HT-29, Table 1, class symbols, hydroxyurea

| SMILES | IC50 [1, 4] [µM] | IC50 ([2]; Table 1, class symbols, 4-OHT) [µM] | IC50 [3] [µM] | IC50 ([1]; HT-29, Table 2, hydroxyurea) [µM] | IC50 ([2]; Table 2, 4-OHT) [µM] |
| --- | --- | --- | --- | --- | --- |
| CNc1nc2ccccc2n1-c1nc2c(c(C(C)(C)O)n1)OC[C@@H]1COC[C@@H](C)N21 [A9, 2-[(5R,8aS)-5-Methyl-3-(2-methylamino-benzimidazol-1-yl)-5,6,8a,9-tetrahydro-8H-7,10-dioxa-2,4,4b-triaza-phenanthren-1-yl]-propan-2-ol] | 0.01 to 0.1 | 0.1 to 1 | < 0.001 |  |  |
| CNc1nccn1-c1nc2c(c(C(C)(C)S(C)(=O)=O)n1)OC[C@@H]1COC[C@@H](C)N21 [A10, {1-[(5R,8aS)-1-(1-Methanesulfonyl-1-methyl-ethyl)-5-methyl-5,6,8a,9-tetrahydro-8H-7,10-dioxa-2,4,4b-triaza-phenanthren-3-yl]-1H-imidazol-2-yl}-methyl-amine] | 0.01 to 0.1 | 0.1 to 1 | 0.01 to 0.1 |  |  |
| C[C@@H]1COC[C@H]2COc3c(nc(-n4c(N)nc5ccccc54)nc3C(C)(C)S(C)(=O)=O)N21 [A11, 1-[(5R,8aS)-1-(1-Methanesulfonyl-1-methyl-ethyl)-5-methyl-5,6,8a,9-tetrahydro-8H-7,10-dioxa-2,4,4b-triaza-phenanthren-3-yl]-1H-benzimidazol-2-ylamine] | 0.01 to 0.1 | 0.1 to 1 | < 0.001 |  |  |
| CNc1nc2ccccc2n1-c1nc2c(c(C(C)(C)S(C)(=O)=O)n1)OC[C@@H]1COC[C@@H](C)N21 [A15, {1-[(5R,8aS)-1-(1-Methanesulfonyl-1-methyl-ethyl)-5-methyl-5,6,8a,9-tetrahydro-8H-7,10-dioxa-2,4,4b-triaza-phenanthren-3-yl]-1H-benzimidazol-2-yl}-methyl-amine] | < 0.01 | < 0.01 | < 0.001 | 0.0029 | 0.0074 |
| Cc1nc2ccccc2n1-c1nc2c(c(C(C)(C)S(C)(=O)=O)n1)OC[C@@H]1COC[C@@H](C)N21 [A24, (5R,8aS)-1-(1-Methanesulfonyl-1-methyl-ethyl)-5-methyl-3-(2-methylbenzimidazol-1-yl)-5,6,8a,9-tetrahydro-8H-7,10-dioxa-2,4,4b-triaza-phenanthrene] | 0.01 to 0.1 | 0.1 to 1 | < 0.001 |  |  |
| CNc1nc2c(F)cccc2n1-c1nc2c(c(C(C)(C)S(C)(=O)=O)n1)OC[C@@H]1COC[C@@H](C)N21 [A25, {4-Fluoro-1-[(5R,8aS)-1-(1-methanesulfonyl-1-methyl-ethyl)-5-methyl-5,6,8a,9-tetrahydro-8H-7,10-dioxa-2,4,4b-triaza-phenanthren-3-yl]-1H-benzimidazol-2-yl}-methyl-amine] | 0.01 to 0.1 | 0.1 to 1 | < 0.001 |  |  |
| CNc1nc2ccccc2n1-c1nc2c(c(C3(S(C)(=O)=O)CC3)n1)OC[C@@H]1COC[C@@H](C)N21 [A26, {1-[(4bR,8S)-1-(1-Methanesulfonyl-cyclopropyl)-5-methyl-5,6,8a,9-tetrahydro-8H-7,10-dioxa-2,4,4b-triaza-phenanthren-3-yl]-1H-benzimidazol-2-yl}-methylamine] | 0.01 to 0.1 | 0.01 to 0.1 | < 0.001 | 0.025 | 0.037 |

The remaining lines, values ahead:

| IC50 [1, 4] [µM] | IC50 ([2]; Table 1, class symbols, 4-OHT) [µM] | IC50 [3] [µM] | IC50 ([1]; HT-29, Table 2, hydroxyurea) [µM] | IC50 ([2]; Table 2, 4-OHT) [µM] | SMILES |
| --- | --- | --- | --- | --- | --- |
| 0.01 to 0.1 | 0.01 to 0.1 | < 0.001 |  |  | C[C@@H]1COC[C@H]2COc3c(nc(-c4ccnc5[nH]ccc45)nc3C(C)(C)O)N21 [A6, 2-[(5R,8aS)-5-Methyl-3-(1H-pyrrolo[2,3-b]pyridin-4-yl)-5,6,8a,9-tetrahydro-8H-7,10-dioxa-2,4,4b-triaza-phenanthren-1-yl]-propan-2-ol] |
| 0.1 to 1 | 0.1 to 1 | 0.001 to 0.01 |  |  | C[C@@H]1COC[C@H]2COc3c(nc(-c4c(F)cnc5[nH]ccc45)nc3C(C)(C)O)N21 [A7, 2-[(5R,8aS)-3-(5-Fluoro-1H-pyrrolo[2,3-b]pyridin-4-yl)-5-methyl-5,6,8a,9-tetrahydro-8H-7,10-dioxa-2,4,4b-triaza-phenanthren-1-yl]-propan-2-ol] |
| 0.1 to 1 | 0.01 to 0.1 | < 0.001 |  |  | C[C@@H]1COC[C@H]2COc3c(nc(-c4c(N)cnc5[nH]ccc45)nc3C(C)(C)O)N21 [A21, 2-[(5R,8aS)-3-(5-Amino-1H-pyrrolo[2,3-b]pyridin-4-yl)-5-methyl-5,6,8a,9-tetrahydro-8H-7,10-dioxa-2,4,4b-triaza-phenanthren-1-yl]-propan-2-ol] |
| 0.01 to 0.1 | 0.1 to 1 | 0.001 to 0.01 |  |  | CNc1cnc2[nH]ccc2c1-c1nc2c(c(C(C)(C)O)n1)OC[C@@H]1COC[C@@H](C)N21 [A23, 2-[(5R,8aS)-5-Methyl-3-(5-methylamino-1H-pyrrolo[2,3-b]pyridin-4-yl)-5,6,8a,9-tetrahydro-8H-7,10-dioxa-2,4,4b-triaza-phenanthren-1-yl]-propan-2-ol] |
